Data set [1] is described as follows: Thermogravimetric analysis (TGA). The conditions noted are these: for slow weight loss (TGA): before about 120° C., showing that it is an anhydrate; for decomposition temperature (TGA): nitrogen, ramp 10° C./min. The class given is physicochemical. As for the experimental part: The thermogravimetric analyzer (TGA) involved herein is Q500TGA from TA Instruments; detection conditions: a platinum crucible, a protective atmosphere of nitrogen, a gas flow rate of 40 mL/min; and the following detection method: a Hi-Res sensitivity of 3.0, ramp 10.00° C./min, res 5.0 to 120.00° C., and ramp 10.00° C./min to 350° C.

Data set [2] in a line: Pharmacokinetics comparative experiment, plasma concentration by LC/MS2 after capsule intragastric administration. The conditions noted are these: SD rats, 133 mg/kg, solid capsule intragastric administration. The class given is in vivo. An excerpt:
By means of a pharmacokinetics comparative experiment, the […] feature of the crystalline form I provided herein after administration is compared with that of the amorphous solid of Example 1 as a reference sample.
SD rats (all male, weight of 260-280 g) were randomizely grouped, each group of 3 animals. The medication group received the crystalline form compound (No. S08S02S15a) of the Example 2, the crystalline form compound (No. S08S04S22a) of the Example 7, and the crystalline form compound (No. S08S19S24a) of the Example 8, respectively, and the control group received the reference sample (the amorphous solid of Example 1). The animals were fasted for 12 hours before administration, and the dosage of administration was 133 mg/kg. The corresponding medications were administered by intragastric administration using a solid capsule administration system (Size 9el Rat Box+Foam+Funnel+Syringe). Rat plasma samples were collected before administration, and 0.08, 0.16, 0.33, 0.5, 1, 1.5, 2, 3, 4, 6, and 8 h after administration, respectively. After heparin tube anticoagulation, centrifugation was performed at 5000 rpm for 10 min at a temperature of 4° C. A plasma supernatant sample was taken and subjected to protein precipitation using methanol, and then, the medication concentration in the plasma was monitored by LC/MS2.

Setting [3] is: compared with amorphous solid of Example 1.

Structures are written as SMILES.

`CC(C)[C@H](N)C(=O)NCCCS(=O)(=O)O` [Crystalline Form I, 3-((L-valyl)amino)-1-propanesulfonic acid]: the “slow weight loss (TGA)” value in data set [1] (listed as Example 2) is “about 0.5 wt %”; in data set [1] (listed as Example 6), “about 0.5 wt %”; in data set [1] (listed as Example 7), “about 1.4 wt %”; in data set [1] (listed as Example 8), “about 0.2 wt %”; in data set [1] (listed as Example 9), “about 1.2 wt %”; in data set [1] (listed as Example 14), “about 0.5 wt %”. In addition, the “slow weight loss (TGA)” value in data set [1] (listed as Example 24) was “about 0.6 wt %”. Further, the “decomposition temperature (TGA)” value in data set [1] (listed as Example 2) is “about 307 °C”; in data set [1] (listed as Example 6), “about 300 °C”; in data set [1] (listed as Example 7) it was “about 302 °C”; in data set [1] (listed as Example 8), “about 314 °C”; in data set [1] (listed as Example 9) it was “about 303 °C”; in data set [1] (listed as Example 14), “about 310 °C”. Moreover, the “decomposition temperature (TGA)” value in data set [1] (listed as Example 24) was “about 317 °C”. The “exposure AUC” value in data set [2] (setting [3]) is recorded as “effectively improve”. Besides, in data set [2] (setting [3]), the “half-life period T1/2” value is given as “effectively improve”. Further, the “maximum blood concentration Cmax” value in data set [2] (setting [3]) is given as “effectively improve”. Further, the medication dissolution entry in data set [2] (compared with reference sample (amorphous solid of Example 1), FIGS. 21-24) is “improving”.

For the origin of these results see patent US12338205B2, “Crystalline form of 3-((L-valyl) amino)-1-propanesulfonic acid” (RISEN (SUZHOU) PHARMA TECH CO., LTD., priority 2018, dated 2025).
